Like-named read-outs stand apart in the source and are kept apart here.
How the values were obtained:
[1] = male, beagle, dog, in vivo, 200 mg/kg
[2] = Pharmacokinetics in cynomolgus monkeys; type: in vivo; conditions: monkey
Experimental: (§1) The pharmacokinetics of Compound 1 were assessed in the same species used in the toxicology studies: CD-1 mice, Sprague Dawley rats and beagle dogs. The pharmacokinetics of Compound 1 were also assessed in cynomolgus monkeys.

in vivo = conditions: rat, po
Experimental: Repeat-dose oral toxicity studies of 7- and 14-days duration have been conducted in rats (up to 600 mg/kg/day) and dogs (up to 200 mg/kg/day).

[3] = tested on: gastrointestinal, respiratory, CNS, or cardiovascular systems; assay: Safety pharmacology studies (ICH S7A/S7B battery); type: in vivo, rat, dog
[4] = Single oral pharmacokinetics of the free form in suspension in male rats; type: in vivo, male Sprague Dawley rats; conditions: for AUC(0-inf): free form suspension, mean (SD)
Experimental: as §1
Non-validated research grade assays were used for these analyses. All pharmacokinetic studies were conducted using fed animals unless otherwise specified.
At 600 mg/kg, the increase in systemic exposure was less than proportional to the increase in dose. Bioavailability ranged from 47% to ˜100% across the 1 to 600 mg/kg oral dose range in rats, indicating excellent absorption of the compound.

[5] = Toxicokinetics in 7-day dose range finding study in dogs; type: in vivo; conditions: 100 mg/kg/day; for Cmax: dog, plasma, oral
Experimental: One dog per gender was dosed orally with the vehicle (0.5% methylcellulose+0.5% Tween80 in water), or 25, 50, or 100 mg/kg/day Compound 1 for 7 consecutive days. The dose volume was 5 mL/kg/day for all dose groups. Plasma samples were collected on Days 1 and 7 for TK analysis and viability, clinical observations, body weights, feed consumption, clinical pathology (termination), organ weights, macroscopic observations, and microscopic pathology were evaluated.
The plasma AUC0-24 data on Day 1 was consistent with previously conducted single dose studies of Compound 1 in the dog.

[6] = Pharmacokinetics in CD-1 mice; type: in vivo; conditions: mouse
Experimental: as §1

rats = assay: Acute oral toxicity study in rats; conditions: rats; single oral doses 500, 1000 or 2000 mg/kg
Experimental: (§2) The intended clinical route of administration is oral, thus oral toxicity studies were done in mice, rats and dogs. […] Effects of repeat oral dosing were assessed in rats and dogs in preliminary 7-day toxicity studies followed by a 14-day GLP1 toxicity studies.

[7] = Acute oral toxicity study in rats; conditions: rat, in vivo, po
Experimental: as §2

[8] = Sprague Dawley, rat, plasma, po, male rats, free form, 1 mg/kg
[9] = Sprague Dawley, rat, plasma, po, male rats, free form, 30 mg/kg
[10] = Sprague Dawley, rat, plasma, po, male rats, free form, 150 mg/kg
[11] = Sprague Dawley, rat, plasma, po, male rats, free form, 300 mg/kg
[12] = Sprague Dawley, rat, plasma, po, male rats, free form, 600 mg/kg
[13] = male rats, free form, 150 mg/kg
[14] = male rats, free form, 300 mg/kg
[15] = male rats, free form, 600 mg/kg

With `Cc1ccc(NC(=O)C2(c3ccc4c(c3)OC(F)(F)O4)CC2)nc1-c1cccc(C(=O)O)c1` [Compound 1, 3-(6-(1-(2,2-difluorobenzo[d][1,3]dioxol-5-yl)cyclopropanecarboxamido)-3-methylpyridin-2-yl)benzoic acid] the F [1] was 20%, the tlast [1] was 48 h and the clearance [2] was “very low clearance”. For the same compound, the NOAEL at 14 days (in vivo) was 600 mg/kg/day, the “cardiovascular or respiratory findings” value ([3]; oral doses up to 1000 mg/kg in the rat and 200 mg/kg in the dog) was “no cardiovascular or respiratory findings” and the “adverse effects on gastrointestinal, respiratory, CNS, or cardiovascular systems” value ([3]; oral formulations) was “unlikely to cause adverse effects”. The concentration at 48 hr ([4]; Sprague Dawley, rat, plasma, oral, male rats, free form, 1 mg/kg, read-out: Clast) was 28.8 ng/mL, the concentration at 48 h ([4]; Sprague Dawley, rat, plasma, oral, male rats, free form, 30 mg/kg, read-out: Clast) was 44 ng/mL and the concentration at 72 hr ([4]; Sprague Dawley, rat, plasma, oral, male rats, free form, 150 mg/kg, read-out: Clast) was 51.6 ng/mL. The concentration at 48 hr ([4]; Sprague Dawley, rat, plasma, oral, male rats, free form, 300 mg/kg, read-out: Clast) was 1120 ng/mL, the concentration at 72 hr ([4]; Sprague Dawley, rat, plasma, oral, male rats, free form, 600 mg/kg, read-out: Clast) was 1240 ng/mL and the AUC(0-inf) ([4]; Sprague Dawley, rat, plasma, po, male rats, nominal dose 1 mg/kg) was 13.7 µg·h/mL. For the same compound, the AUC(0-inf) ([4]; Sprague Dawley, rat, plasma, po, male rats, nominal dose 30 mg/kg) was 369 µg·h/mL, the AUC(0-inf) ([4]; Sprague Dawley, rat, plasma, po, male rats, nominal dose 150 mg/kg) was 728 µg·h/mL and the AUC(0-inf) ([4]; Sprague Dawley, rat, plasma, po, male rats, nominal dose 300 mg/kg) was 2530 µg·h/mL. The AUC(0-inf) ([4]; Sprague Dawley, rat, plasma, po, male rats, nominal dose 600 mg/kg) was 3080 µg·h/mL, the Cmax [4, 8] was 1100 ng/mL and the Tmax [4, 8] was 3 h. For the same compound, the Cmax [4, 9] was 28200 ng/mL, the Tmax [4, 9] was 4 h and the Cmax [4, 10] was 54700 ng/mL. The Tmax [4, 10] was 4.67 h, the Cmax [4, 11] was 181000 ng/mL and the Tmax [4, 11] was 3.33 h. The Cmax [4, 12] was 203000 ng/mL, the Tmax [4, 12] was 4.67 h and the F ([4]; male rats, free form, 1 mg/kg) was >100%. The tlast ([4]; male rats, free form, 1 mg/kg) was 48 h, the F ([4]; male rats, free form, 30 mg/kg) was >100% and the tlast ([4]; male rats, free form, 30 mg/kg) was 48 h. It also gave an F [4, 13] of 47%, a tlast [4, 13] of 72 h and an F [4, 14] of 81%. For the same compound, the tlast [4, 14] was 48 h, the F [4, 15] was 50% and the tlast [4, 15] was 72 h. It also gave a half-life ([4]; male, Sprague Dawley, rat, plasma, po, 1 mg/kg, male rats, free form, 1 mg/kg, read-out: t1/2 (converted)) of 7.65 h, a half-life ([4]; male, Sprague Dawley, rat, plasma, po, 30 mg/kg, male rats, free form, 30 mg/kg, read-out: t1/2 (converted)) of 6.83 h and a half-life ([4]; male, Sprague Dawley, rat, plasma, po, 150 mg/kg, male rats, free form, 150 mg/kg, read-out: t1/2 (converted)) of 8.07 h. For the same compound, the half-life ([4]; male, Sprague Dawley, rat, plasma, po, 300 mg/kg, male rats, free form, 300 mg/kg, read-out: t1/2 (converted)) was 5.86 h, the half-life ([4]; male, Sprague Dawley, rat, plasma, po, 600 mg/kg, male rats, free form, 600 mg/kg, read-out: t1/2 (converted)) was 7.49 h and the half-life ([4]; male, Sprague Dawley, rat, plasma, po, administered orally to rats, read-out: half-life) was 5 to 9 h. It also gave a half-life ([4]; male, Sprague Dawley, rat, plasma, po, male rats, 1 to 600 mg/kg oral dose range, read-out: terminal half-life) of 5.9 to 8.1 h, a bioavailability ([4]; male, Sprague Dawley, rat, plasma, rats, across the 1 to 600 mg/kg oral dose range) of 47 to 100% and a Tmax ([4]; male, Sprague Dawley, rat, plasma, rats, across the oral dose range, fed conditions) of 3 to 4.7 h. For the same compound, the clearance ([4]; rat) was “very low clearance”, the average plasma concentrations ([5]; female) was 38 µM and the average plasma concentrations ([5]; male) was 16 µM. The Cmax ([5]; female) was ~130 µM, the Cmax ([5]; male) was ~110 µM and the clearance [6] was “very low clearance”. For the same compound, the “organ weights and gross observations at necropsy” value (rats) was “no effects on organ weights and no gross observations”, the MTD at 14 days [7] was > 2000 mg/kg and the NOAEL at 14 days [7] was > 2000 mg/kg.
